Here are results for 36 compounds from patent publication US6218431A, “Substituted biphenyls” (Bayer Corporation, priority 1997, dated 2001).

In the assay the target is T1, glucagon receptor (Homo sapiens, UniProt P47871).
T1 construct: expressed in transfected cells; host or cells: Chinese Hamster Ovary cells (CHO-HGR), membranes
Kind of assay: glucagon receptor binding assay (125I-glucagon, CHO-HGR membranes). Conditions: for IC50: 125I-glucagon, 60 min at room temperature, read-out: IC50; for inhibition at 20 µM: reported where 20 μM did not reduce glucagon binding by 50%. As for the experimental part:
The affinity for the glucagon receptor of compounds of the present invention is determined by the glucagon receptor binding assay. Membranes were prepared from Chinese Hamster Ovary cells expressing the glucagon receptor (CHO-HGR) by scraping the cells into hypotonic lysis buffer (10 mM Tris, pH 7.4, 2 mM EDTA, 5 mM MgCl2 and 1 mM PMSF) and subjecting the material to Polytron homogenization. Nuclei were removed by a 15-min 800×g centrifugation step conducted at 4° C. Membranes containing the receptor were collected by centrifugation at 15,000×gfor 15 min at 4° C. The membranes were washed once in lysis buffer and suspended in 0.25 M sucrose, 10 mM Tris, 5 mM EDTA, pH 7.4. The membranes were used in ligand binding studies as reported (Yoo-Warren, H., Willse, A. G., Hancock, N., Hull, J., McCaleb, M., and Livingston, J. Regulation of Rat Glucagon Receptor Expression. Biochem. Biophysical Res. Commun. 1994, 205, 347-353). In brief, 10 ug of membrane protein was incubated in 130 μl of binding buffer that consisted of 20 mM Tris, […], 1 mM EDTA, 1 mg/ml BSA, and 1 mg/ml bacitracin. The membrane suspension was placed in each well of a 96-well filtration plate (glass fiber type C, Millipore). […] Following the addition of test compound, 50 μl of ^125 I-glucagon (9 fmol) (NEN) was added to each well. Control wells contained membranes, 0.5% DMSO (solvent for test compounds), radiolabeled glucagon without and with excess native glucagon (1 μM) to establish nonspecific binding. The plates were incubated for 60 min at room temperature, and then filtered on a Mllipore vacuum apparatus. Following a wash step with ice-cold PBS/0.1% BSA, the filters were punched into test tubes, and the membrane bound radioactivity was determined.

T1 sequence (P47871 26-477): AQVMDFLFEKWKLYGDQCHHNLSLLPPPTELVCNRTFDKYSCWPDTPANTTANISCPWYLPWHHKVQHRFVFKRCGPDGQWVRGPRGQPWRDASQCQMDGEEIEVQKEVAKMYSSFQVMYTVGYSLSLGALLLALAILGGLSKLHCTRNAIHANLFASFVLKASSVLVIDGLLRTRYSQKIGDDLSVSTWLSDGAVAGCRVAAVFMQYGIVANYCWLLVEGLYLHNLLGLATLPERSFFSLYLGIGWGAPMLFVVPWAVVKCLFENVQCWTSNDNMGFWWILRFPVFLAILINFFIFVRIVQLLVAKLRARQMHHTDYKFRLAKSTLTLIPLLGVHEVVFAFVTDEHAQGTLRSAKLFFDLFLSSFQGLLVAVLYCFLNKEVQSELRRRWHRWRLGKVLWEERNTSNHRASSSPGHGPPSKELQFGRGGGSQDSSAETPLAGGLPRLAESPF

One may read the IC50 as the concentration that inhibits the measured activity by half. `CCCCCc1c(CCC(C)C)nc(C(C)C)c(CO)c1-c1ccc(F)cc1` [Example 229, 2-Isopropyl-3-hydroxymethyl-4-(4-fluorophenyl)-5-pentyl-6-(3-methylbutyl)pyridine]: the IC50 is 0.8 µM. On the same count and under the same terms, in the case of `CCc1c(C(C)C)cc(C(C)C)c(C(C)O)c1-c1ccc(F)cc1` (single isomer, unassigned; (+)) [Example 244, (+)-3,5-Diisopropyl-2-(1-hydroxyethyl)-6-ethyl-4'-fluoro-1,1'-biphenyl] it was 0.18 µM. On the same count and under the same terms, the result for `CCCCCCCCc1c(C(C)C)nc(C(C)C)c(CO)c1-c1ccc(F)cc1` [Example 36, 2,6-Diisopropyl-3-hydroxymethyl-4-(4-fluorophenyl)-5-octylpyridine] reads 1.8 µM; that for `CC(C)CCc1c(C(C)C)nc(C(C)C)c(CO)c1-c1ccc(F)cc1` [Example 29, 2,6-Diisopropyl-3-hydroxymethyl-4-(4-fluorophenyl)-5-(3-methylbutyl)pyridine], 1 µM. Still for that read-out and setting: the result for `CC1=CC(C)(C)Cc2c1nc(C(C)C)c(C(C)O)c2-c1ccc(F)cc1` (stereo not drawn) [Example 237, 2-Isopropyl-3-(1-hydroxyethyl)-4-(4-fluorophenyl)-5,6-dihydro-6,6,8-trimethylquinoline] reads 1.2 µM; that for `CCCCCc1c(C(C)C)nc(C(C)C)c(CO)c1-c1ccc(Cl)cc1` [Example 144, 2,6-Diisopropyl-3-hydroxymethyl-4-(4-chlorophenyl)-5-pentylpyridine], 0.8 µM. `Cc1ccc(SCc2c(C(C)C)nc(C(C)C)c(CO)c2-c2ccc(F)cc2)cc1` [Example 50, 2,6-Diisopropyl-3-hydroxymethyl-4-(4-fluorophenyl)-5-[((4-methyl)-phenyl)thio]methylpyridine]: the IC50 was 0.9 µM.

By inhibition is commonly meant the relative decrease from the control value, in per cent. The low end stands for little suppression, the high end for strong suppression. As for `CCCC=Cc1c(C(C)C)nc(C(C)C)c(CO)c1-c1ccc(Cl)c(Cl)c1` [Example 149, 2,6-Diisopropyl3-hydroxymethyl-4-(3,4-dichlorophenyl)-5-(pent-1-enyl)pyridine], the inhibition at 20 µM is 39%. As for `Cc1cc(C)cc(SCc2c(C(C)C)nc(C(C)C)c(CO)c2-c2ccc(F)cc2)c1` [Example 61, 2,6-Diisopropyl-3-hydroxymethyl-4-(4-fluorophenyl)-5-[(3,5dimethylphenyl)thio]methylpyridine], the IC50 amounted to 3.4 µM.

Turning to `CCCCCc1c(C(C)C)nc(C(C)C)c(CO)c1-c1ccc(C(F)(F)F)cc1` [Example 126, 2,6-Diisopropyl-3-hydroxymethyl-4-[(4-trifluoromethyl)phenyl]-5-pentylpyridine], testing at 20 µM gave an inhibition of 35.3%. Regarding `CC(C)CCCc1c(C(C)C)nc(C(C)C)c(CO)c1-c1ccc(F)cc1` [Example 30, 2,6-Diisopropyl-3-hydroxymethyl-4-(4-fluorophenyl)-5-(4-methylpentyl)pyridine], the IC50 was found to be 0.9 µM.

On to `CCCC=Cc1c(C(C)C)nc(C(C)C)c(CO)c1-c1ccccc1OCc1ccccc1` [Example 162, 2,6-Diisopropyl-3-hydroxymethyl-4-(2-benzyloxyphenyl)-5-(pent-1-enyl)pyridine], for which the inhibition at 20 µM amounted to 13.9%.

On to `CCCC=Cc1c(C(C)C)cc(C(C)C)c(CO)c1-c1ccc(F)cc1` [Example 194, 3,5-Diisopropyl-2-hydroxymethyl-6-(pent-1-enyl)-4'-fluoro-1,1'-biphenyl], for which the IC50 worked out at 1 µM.

For the compound `CCCCCc1c(C=C(C)C)nc(C(C)C)c(CO)c1-c1ccc(F)cc1` [Example 226, 2-Isopropyl-3-hydroxymethyl-4-(4-fluorophenyl)-5-pentyl-6-(2-methylpropenyl)pyridine], the IC50 is 3 µM. For `CCCCCc1c(C(C)C)nc(C(C)C)c(C(C)O)c1-c1ccccc1O` (single isomer, unassigned) [Example 164-D2, 2,6-Diisopropyl-3-(1-hydroxyethyl)-4-(2-hydroxyphenyl)-5-pentylpyridine], the IC50 worked out at 0.1 µM. `CC(C)C=Cc1c(C(C)C)nc(C(C)C)c(CO)c1-c1ccc(F)cc1` [Example 27, 2,6-Diisopropyl-3-hydroxymethyl-4-(4-fluorophenyl)-5-(3-methyl-1-butenyl)pyridine]: the IC50 worked out at 20 µM. As for `CCCCN(CCCC)Cc1c(C(C)C)nc(C(C)C)c(CO)c1-c1ccc(F)cc1` [Example 80, 2,6-Diisopropyl-3-hydroxymethyl-4-(4fluorophenyl)-5-(dibutylamino)-methylpyridine], the inhibition at 20 µM is 38.8%. The compound `CCCC=Cc1c(C(C)C)nc(C(C)C)c(CO)c1-c1ccc(S(C)(=O)=O)cc1` [Example 176, 2,6-Diisopropyl-3-hydroxymethyl-4-[4-(methylsulfonyl)phenyl]-5-(pent-1-enyl)pyridine] showed an inhibition at 20 µM of 13.8%. On to `CC(C)c1nc(C(C)C)c(C(C)O)c(-c2ccc(F)cc2)c1CSc1ccccc1` (racemic) [Example 113, (±)-2,6-Diisopropyl-3-(1-hydroxyethyl)-4-(4-fluorophenyl)-5-phenylthio-methylpyridine], for which the IC50 came to 0.6 µM.

As for `CCc1nc(CC)c(CO)c(-c2ccccc2)c1CC` [Example 9], the inhibition at 20 µM turned out to be 16.6%.

As to `CC(C)c1cc(C(C)C)c(CSc2c(F)c(F)c(Cl)c(F)c2F)c(-c2ccc(F)cc2)c1CO` [Example 287], the IC50 was determined as 20 µM. Same read-out and setting: in the case of `C=CCC(O)c1nc(C(C)C)c(CO)c(-c2ccc(F)cc2)c1CCCCC` (stereo not drawn) [Example 205, 2-(1-Hydroxybut-3-enyl)-3-pentyl-4-(4-fluorophenyl)-5-hydroxymethyl-6-isopropylpyridine] it was 18 µM.

In the case of `CCCCCc1c(CC(C)C)nc(C(C)C)c(CO)c1-c1ccc(F)cc1` [Example 228, 2-Isopropyl-3-hydroxymethyl-4-(4-fluorophenyl)-5-pentyl-6-(2-methylpropyl)pyridine], the IC50 turned out to be 2 µM. Consider `CC(C)c1nc(C(C)C)c(CSc2c(F)c(F)cc(F)c2F)c(-c2ccc(F)cc2)c1CO` [Example 53, 2,6-Diisopropyl-3-hydroxymethyl-4-(4-fluorophenyl)-5-[(2,3,5,6-tetra-fluorophenyl)thio]methylpyridine], for which the IC50 is 4.9 µM. `CC(C)c1nc(C(C)C)c(C(O)C(C)C)c(-c2ccc(F)cc2)c1CO` (racemic) [Example 97, (±)-2,6-Diisopropyl-3-hydroxymethyl-4-(4-fluorophenyl)-5-[(1-hydroxy-2-methyl)propyl]pyridine] showed an inhibition at 20 µM of 29.2%. Same read-out and setting: in the case of `CCCCCc1c(C(C)C)nc(C(C)C)c(CCO)c1-c1ccc(F)cc1` [Example 119, 2,6-Diisopropyl-3-(2-hydroxyethyl)-4-(4fluorophenyl)-5-pentylpyridine] it was 30.2%; in that of `CCCCCc1c(C(C)C)nc(C(C)C)c(CNC)c1-c1ccc(F)cc1` [Example 120, 2,6-Diisopropyl-3-methylaminomethyl-4-(4-fluorophenyl)-5-pentyl-pyridine], 37%. In the case of `CCc1nc(CC)c(CO)c(-c2ccccc2)c1C=C(C)C` [Example 5], the inhibition at 20 µM turned out to be 12.4%. As to `CCCCCc1c(C(C)C)nc(C(C)C)c(C(C)O)c1-c1ccc(F)cc1` (single isomer, unassigned) [Example 107, 2,6-Diisopropyl-3-(1-hydroxyethyl-4-fluorophenyl)-5-pentylpyridine], the IC50 turned out to be 3 µM. Compound `CCCCC(O)c1c(C(C)C)nc(C(C)C)c(CO)c1-c1ccc(F)cc1` (racemic) [Example 95, (±)-2,6-Diisopropyl-3-hydroxymethyl-4-(4-fluorophenyl)-5-(1-hydroxy-pentyl)pyridine] came in with an inhibition at 20 µM of 26.5%.

Consider `C=CCc1c(C(C)C)nc(C(C)C)c(CO)c1-c1ccc(F)cc1` [Example 87, 2,6-Diisopropyl-3-hydroxymethyl-4-(4fluorophenyl)-5-(2-propenyl)-pyridine], for which the IC50 was found to be 1.9 µM.

Consider `CC(C)c1cc(C(C)C)c(CSc2cc(Cl)cc(Cl)c2)c(-c2ccc(F)cc2)c1CO` [Example 285], for which the IC50 turned out to be 9 µM.

For `CCCCCc1c(C(C)C)nc(C(C)C)c(C(O)CO)c1-c1ccc(F)cc1` (racemic) [Example 124, (±)-2,6-Diisopropyl-3-(1,2-dihydroxyethyl)-4-(4-fluorophenyl)-5-pentyl-pyridine], the IC50 was determined as 12 µM. `CCCCCc1c(C(C)C)nc(C(C)C)c(CO)c1-c1ccc(O)cc1` [Example 161, 2,6-Diisopropyl-3-hydroxymethyl-4-(4-hydroxyphenyl)-5-pentylpyridine] yielded an inhibition at 20 µM of 24%. With `COc1ccccc1SCc1c(C(C)C)nc(C(C)C)c(CO)c1-c1ccc(F)cc1` [Example 60, 2,6-Diisopropyl-3-hydroxymethyl-4-(4-fluorophenyl)-5-[(2-methoxy-phenyl)thio]methylpyridine], the IC50 was 1.6 µM.

`CC(C)c1nc(C(C)C)c(CCCC(=O)O)c(-c2ccc(F)cc2)c1CO` [Example 92, 2,6-Diisopropyl-3-hydroxymethyl-4-(4-fluorophenyl)-5-(3carboxypropyl)pyridine] had an inhibition at 20 µM of 11.6%.
